Reference: ChEMBL document CHEMBL5120864, “Targeting Enhancer of Zeste Homolog 2 for the Treatment of Hematological Malignancies and Solid Tumors: Candidate Structure-Activity Relationships Insights and Evolution Prospects” (J Med Chem, 2022)

Experiments:
WSUDLCL2 = assay: cells; format: functional, cell-based; conditions: Homo sapiens
[1] = target: Histone-lysine N-methyltransferase EZH2 (Homo sapiens, UniProt Q15910, Y641F)
SU-DHL-6 [2] = assay: cells; format: functional, cell-based; conditions: Homo sapiens
Pfeiffer [3] = assay: cells; format: functional, cell-based; conditions: Homo sapiens
[4] = target: T1, Histone-lysine N-methyltransferase EZH2 (Homo sapiens, UniProt Q15910)
T1 sequence (Q15910 whole entry): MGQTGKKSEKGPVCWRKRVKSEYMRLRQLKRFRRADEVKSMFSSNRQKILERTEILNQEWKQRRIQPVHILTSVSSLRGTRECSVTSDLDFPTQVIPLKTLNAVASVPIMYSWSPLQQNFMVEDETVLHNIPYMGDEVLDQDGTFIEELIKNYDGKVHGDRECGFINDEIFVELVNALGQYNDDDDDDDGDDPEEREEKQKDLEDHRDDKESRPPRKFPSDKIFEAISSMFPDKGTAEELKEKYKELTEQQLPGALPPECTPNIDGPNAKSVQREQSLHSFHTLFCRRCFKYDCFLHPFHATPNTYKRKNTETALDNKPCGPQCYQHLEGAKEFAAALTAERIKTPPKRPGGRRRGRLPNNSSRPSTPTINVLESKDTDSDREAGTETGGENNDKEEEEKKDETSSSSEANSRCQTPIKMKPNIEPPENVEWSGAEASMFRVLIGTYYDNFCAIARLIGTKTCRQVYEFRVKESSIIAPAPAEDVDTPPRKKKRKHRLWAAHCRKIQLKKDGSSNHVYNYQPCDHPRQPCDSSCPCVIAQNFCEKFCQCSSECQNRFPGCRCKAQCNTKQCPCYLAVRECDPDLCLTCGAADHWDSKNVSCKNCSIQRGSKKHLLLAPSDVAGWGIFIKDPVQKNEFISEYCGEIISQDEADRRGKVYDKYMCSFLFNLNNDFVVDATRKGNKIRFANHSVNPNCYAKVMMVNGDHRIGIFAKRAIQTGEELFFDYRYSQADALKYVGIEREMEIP

[5] = target: T1, Histone-lysine N-methyltransferase EZH2; remark: listed apart in the source
[6] = target: Histone-lysine N-methyltransferase EZH2 (Homo sapiens, UniProt Q15910, Y641N)
Sequence of Histone-lysine N-methyltransferase EZH2 (Homo sapiens, UniProt Q15910, Y641N) (Q15910 whole entry Y641N): as the sequence (Q15910 whole entry) above, with Y641N counted along it

KARPAS-422 [7] = assay: cells; format: functional; conditions: Homo sapiens
HeLa = assay: cells; format: functional, cell-based; conditions: Homo sapiens
[8] = target: T2, Protein cereblon/Histone-lysine N-methyltransferase EZH2 (Homo sapiens, UniProt Q15910+Q96SW2); format: cell-based, DOHH-2
T2 sequence (Q15910 whole entry): as the sequence (Q15910 whole entry) above
T2 sequence (Q96SW2 whole entry): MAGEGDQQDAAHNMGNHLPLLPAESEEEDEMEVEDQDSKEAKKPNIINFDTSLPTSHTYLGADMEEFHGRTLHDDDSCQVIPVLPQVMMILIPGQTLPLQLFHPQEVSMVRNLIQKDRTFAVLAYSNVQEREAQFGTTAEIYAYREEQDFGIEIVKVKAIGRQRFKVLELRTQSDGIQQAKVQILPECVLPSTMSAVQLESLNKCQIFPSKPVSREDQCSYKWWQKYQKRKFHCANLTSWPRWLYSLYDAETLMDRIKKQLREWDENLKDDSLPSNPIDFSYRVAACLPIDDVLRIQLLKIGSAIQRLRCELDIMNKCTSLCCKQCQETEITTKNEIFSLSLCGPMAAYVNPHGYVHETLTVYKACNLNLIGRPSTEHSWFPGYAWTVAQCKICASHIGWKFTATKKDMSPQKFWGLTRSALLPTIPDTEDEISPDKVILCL

[9] = target: T2, Protein cereblon/Histone-lysine N-methyltransferase EZH2; format: cell-based, OCILY7
Pfeiffer [10] = assay: cells; format: functional, cell-based; conditions: Homo sapiens; remark: listed apart in the source
SU-DHL-6 [11] = assay: cells; format: functional, cell-based; conditions: Homo sapiens; remark: listed apart in the source
[12] = target: T1, Histone-lysine N-methyltransferase EZH2; remark: listed apart in the source
HepG2 = assay: cells; format: functional, cell-based; conditions: Homo sapiens, HepG2, 24 h
MCF7 [13] = assay: cells; format: functional, cell-based; conditions: Homo sapiens, MCF7, 24 h
PC-3 = assay: cells; format: functional, cell-based; conditions: Homo sapiens, PC-3, 24 h
KARPAS-422 [14] = assay: cells; format: functional, cell-based; conditions: Homo sapiens
[15] = target: T1, Histone-lysine N-methyltransferase EZH2; remark: listed apart in the source
MDA-MB-231 = assay: cells; format: functional, cell-based; conditions: Homo sapiens, MDA-MB-231, 72 h
cells = conditions: Homo sapiens, MDA-MB-23
MDA-MB-468 = assay: cells; conditions: Homo sapiens
MCF7 [16] = assay: cells; conditions: Homo sapiens

Sequence of Histone-lysine N-methyltransferase EZH2 (Homo sapiens, UniProt Q15910, Y641F) (Q15910 whole entry Y641F): as the sequence (Q15910 whole entry) above, with Y641F counted along it

CCN(c1cc(C#CCN2CCOCC2)cc(C(=O)NCc2c(C)cc(C)[nH]c2=O)c1C)[C@H]1CC[C@H](N(C)CCOC)CC1
IC50 (WSUDLCL2): 385 nM

CCN(c1cc(C#CC2CCN(C)CC2)cc(C(=O)NCc2c(C)cc(C)[nH]c2=O)c1C)C1CCOCC1
IC50 [1]: 8.4 nM

CCN(c1cc(-c2ccc(CN3CCN(C)CC3)cc2)cc(C(=O)NCc2c3c(c(C)[nH]c2=O)CCCC3)c1C)C1CCOCC1
IC50 (SU-DHL-6 [2]): 16000 nM | IC50 (Pfeiffer [3]): 12.5 nM

COc1cc(C)[nH]c(=O)c1CNC(=O)c1c(C)n([C@H](C)C2CCN(CC(C)(F)F)CC2)c2ccccc12
IC50 [1]: < 1 nM | IC50 [4]: < 1 nM

CCN(c1cc(Br)cc(C(=O)NCc2c[nH]c(C)cc2=O)c1C)[C@H]1CC[C@H](N(C)C)CC1
IC50 [5]: 40 nM

CCN(c1cc(-c2ccc(CN3CCOCC3)cc2)cc(C(=O)NCc2c(Cl)cc(C)c[n+]2[O-])c1C)C1CCOCC1
IC50 [5]: < 100 nM

C=CCC1(S(=O)(=O)N2CC(C)c3c(C(=O)NCc4c(C)cc(C)[nH]c4=O)cc(-c4ccc(N5CCN(C)CC5)nc4)cc32)CC1 (stereo not drawn)
IC50 [1]: 1530 nM | IC50 [6]: 1530 nM

CSc1cc(C)[nH]c(=O)c1CN1CCc2c(Cl)c3c(c(C)c2C1=O)O[C@@](C)([C@H]1CC[C@H](N(C)C)CC1)O3
GI50 (KARPAS-422 [7]): 5.7 nM | EC50 (HeLa): 0.849 nM

C=CC(=O)Nc1nn(C(C)c2ccccc2)c(C)c1C(=O)NCc1c(C)cc(C)[nH]c1=O (stereo not drawn)
IC50 [5]: 64 nM

C=CCC1(S(=O)(=O)N2CCc3c(C(=O)NCc4c(C)cc(C)[nH]c4=O)cc(-c4ccc(N5CCN(C)CC5)nc4)cc32)CC1
IC50 [1]: 2590 nM | IC50 [6]: 2590 nM

CCCc1cc(C)[nH]c(=O)c1CNC(=O)c1cc(-c2ccc(N3CCNCC3)cc2)cc2c1ccc(=O)n2C(CC)CC
IC50 [1]: 9 nM | IC50 [4]: 11 nM

C=CCC1(S(=O)(=O)n2cc(C)c3c(C(=O)NCc4c(OC)cc(C)[nH]c4=O)cc(-c4ccc(N5CCN(C)CC5)nc4)cc32)CC1
IC50 [1]: 5 nM | IC50 [6]: 27000 nM

CCN(c1cc(-c2ccc(CN3CCN(C(=O)CCCCCNc4cccc5c4C(=O)N(C4CCC(=O)NC4=O)C5=O)CC3)cc2)cc(C(=O)NCc2c(C)cc(C)[nH]c2=O)c1C)C1CCOCC1 (stereo not drawn)
IC50 [8]: 100 nM | IC50 [9]: 100 nM

CCN(c1cc(-c2ccc(CN3CCOCC3)cc2)cc(C(=O)NCc2c3c(c(C)[nH]c2=O)CCCCCC3)c1C)C1CCOCC1
IC50 (Pfeiffer [10]): 21000 nM | IC50 (SU-DHL-6 [11]): > 30000 nM

CCc1c(C(=O)NCc2c(C)cc(C)[nH]c2=O)cc2c(cnn2C)c1N(CC)[C@H]1CC[C@H](N2CC(OC)C2)CC1
IC50 (Pfeiffer [10]): 76 nM

CSc1cc(C)[nH]c(=O)c1CNC(=O)c1cc(Cl)c2c(c1C)O[C@@](C)([C@H]1CC[C@H](N(C)C)CC1)O2
GI50 (KARPAS-422 [7]): 4 nM | EC50 (HeLa): 0.51 nM

CCN(c1cc(-c2ccc(CN3CCN(C(=O)CCCCCCCNc4cccc5c4C(=O)N(C4CCC(=O)NC4=O)C5=O)CC3)cc2)cc(C(=O)NCc2c(C)cc(C)[nH]c2=O)c1C)C1CCOCC1 (stereo not drawn)
IC50 [8]: 100 nM | IC50 [9]: 60 nM

Cc1cc(C)c(CNC(=O)c2cnn(C(C)C)c2C)c(=O)[nH]1
IC50 [12]: 343000 nM

CCC(C)n1cc(C)c2c(C(=O)NCC3=C(O)NN(CC)C3C)cc(-c3ccc(N4CCNCC4)nc3)cc21 (stereo not drawn)
IC50 [1]: 1470 nM | IC50 [4]: 230 nM

CCN(c1cc(-c2ccc(CN3CCOCC3)cc2)cc(C(=O)NCc2c3c(c(C)[nH]c2=O)CCCC3)c1C)C1CCOCC1
IC50 (Pfeiffer [10]): 19500 nM | IC50 (SU-DHL-6 [11]): 20000 nM

CCN(c1cc(-c2ccc(CN3CCOCC3)cc2)cc(C(=O)NCc2c3c(c(C)[nH]c2=O)CCCCC3)c1C)C1CCOCC1
IC50 (Pfeiffer [10]): 27000 nM | IC50 (SU-DHL-6 [11]): > 30000 nM

Cc1cc(C)c(CN2CCc3c(Br)c4c(c(C)c3C2=O)OC(C)([C@H]2CC[C@H](N(C)C)CC2)O4)c(=O)[nH]1 (stereo partly drawn)
GI50 (Pfeiffer [10]): 0.21 nM | GI50 (KARPAS-422 [7]): 1.2 nM

COc1ccc(C2SCCC(=O)N2Nc2nc3cc(Cl)c(Cl)cc3[nH]2)cc1 (stereo not drawn)
IC50 (HepG2): 68600 nM | IC50 (MCF7 [13]): 76800 nM | IC50 (PC-3): 71800 nM

Cc1cc(C)c(CNC(=O)c2cc(-c3ccc(N4CCN(CCOCCC(=O)Nc5cccc6c5C(=O)N(C5CCC(=O)NC5=O)C6=O)CC4)nc3)c3c(cnn3C(C)C)c2)c(=O)[nH]1 (stereo not drawn)
IC50 [5]: 7 nM

CC1=CCOc2c(Br)cc(C(=O)NCc3c(C)cc(C)[nH]c3=O)cc2C1
IC50 [5]: > 1000 nM

CCCc1cc(C)[nH]c(=O)c1CNC(=O)c1cc(-c2ccc(N3CCOCC3)nc2)c2ccn(C(C)C)c2c1C
IC50 [5]: 0.01 nM

Cc1cc(C)c(CNC(=O)c2cc3c(c(-c4ccc(N5CCNCC5)cc4)c2)OC(C)(C)C3)c(=O)[nH]1
IC50 [5]: < 500 nM

CCCc1cc(C)[nH]c(=O)c1CNC(=O)c1cc(-c2ccc(N3CCNCC3)nc2)cc2c([C@H](C)CC)ncn12
IC50 [1]: 8.13 nM | IC50 [4]: 76.1 nM

CCN(c1cc(-c2cnc(N3CCN(C)CC3)nc2)cc2c(NCc3c(C)cc(C)[nH]c3=O)nccc12)[C@H]1CC[C@H](N(C)C)CC1
IC50 [1]: < 5 nM | IC50 (Pfeiffer [10]): 249 nM

C=CCC1(S(=O)(=O)n2nc(C)c3c(C(=O)NCc4c(C)cc(C)[nH]c4=O)cc(-c4ccc(N5CCN(C)CC5)nc4)cc32)CC1
IC50 [1]: 585 nM | IC50 [6]: 2810 nM

O=C1CCSC(c2ccc([N+](=O)[O-])cc2)N1Nc1nc2ccccc2[nH]1 (stereo not drawn)
IC50 (HepG2): 55800 nM | IC50 (MCF7 [13]): 47600 nM | IC50 (PC-3): 64600 nM

[2H]C([2H])([2H])Sc1cc(C)[nH]c(=O)c1CNC(=O)c1c(C)n([C@H](C)C2CCC(OC)CC2)c2ccc(-c3cnn(C)c3)cc12 (stereo partly drawn)
IC50 [5]: 0.4 nM | IC50 (SU-DHL-6 [11]): 71.1 nM

Cc1cc2c(c(=O)[nH]1)CNC(=O)c1cc(Cl)cc3c1c(cn3C(C)C)/C=C/CC2
IC50 [5]: 40 nM

CCCc1cc(C)n(C)c(=O)c1CN(C)C(=O)c1cc(-c2ccc(N3CCN(C(C)C)CC3)nc2)cc2c1CNN2C(C)C
IC50 [5]: 13000 nM

CCN(c1cc(Cl)cc(C(=O)NCc2c[nH]c(C)cc2=O)c1C)[C@H]1CC[C@H](N(C)C)CC1
IC50 [5]: 3 nM

O=C1CCSC(c2ccc(Cl)cc2)N1Nc1nc2ccccc2[nH]1 (stereo not drawn)
IC50 (HepG2): 53300 nM | IC50 (MCF7 [13]): 74300 nM | IC50 (PC-3): 66900 nM

Cc1cc(C)c(CNC(=O)c2cc(Br)c3c(c2C)O[C@@](C)([C@H]2CC[C@H](N(C)C)CC2)O3)c(=O)[nH]1
GI50 (KARPAS-422 [7]): 4 nM

C=CC(=O)Nc1nn(Cc2ccccc2)c(C)c1C(=O)NCc1c(C)cc(C)[nH]c1=O
IC50 [5]: 5240 nM

CCN(c1cc(C(=O)NCc2c(OC)cc(C)[nH]c2=O)nc2c(-c3ccnc(N(C)C)c3)cnn12)C1CCOCC1
IC50 [1]: ≤ 100 nM

C[C@H](C(=O)NC1COC1)c1cnc(NC[C@H]2CC[C@H](Nc3ccc4ccnc(Cl)c4n3)CC2)nc1
IC50 (KARPAS-422 [14]): 0.3 nM

CCN(c1cc(C(=O)NCc2c(OC)cc(C)[nH]c2=O)nc2c(-c3ccnc(NC)c3)cnn12)C1CCN(CC(F)(F)F)CC1
IC50 [1]: ≤ 100 nM

CCN(c1cc(Cl)cc2c1C/C=C/CCc1cc(C)[nH]c(=O)c1CNC2=O)C1CCC(F)(F)CC1
IC50 [5]: 16 nM

C=CC(=O)Nc1nn(Cc2ccc(-c3ccccc3)cc2)c(C)c1C(=O)NCc1c(C)cc(C)[nH]c1=O
IC50 [5]: 109 nM

Cc1cc(C)c(CNC(=O)c2cc(-c3ccc(CN4CCN(C)CC4)cc3)cc3c2OCCN3C2CCCCC2)c(=O)[nH]1
IC50 (Pfeiffer [10]): 4210 nM

Cc1cc(C)c(CNC(=O)c2cnn(-c3ccccc3)c2)c(=O)[nH]1
IC50 [12]: > 400000 nM

[2H]C([2H])(NC(=O)c1c(C)n([C@H](C)C2CCC(OC)CC2)c2ccccc12)c1c(SC)cc(C)[nH]c1=O (stereo partly drawn)
IC50 [5]: 0.54 nM | IC50 (SU-DHL-6 [11]): 9.94 nM

COc1ccc(C2SCCC(=O)N2Nc2nc3cc(C)c(C)cc3[nH]2)cc1 (stereo not drawn)
IC50 (HepG2): 68300 nM | IC50 (MCF7 [13]): 59700 nM | IC50 (PC-3): 66300 nM

Cc1cc(-c2ccc(N3CCN(C)CC3)nc2)c2ccc(C(=O)NCc3c(OC(C)C)cc(C)[nH]c3=O)c(C)c2n1
IC50 [1]: 13 nM | IC50 [4]: 1.29 nM

COc1cc(C)[nH]c(=O)c1CN1CCn2ccc3cc(-c4c(C)noc4C)c(Cl)c(c32)C1=O
IC50 (WSUDLCL2): 3.8 nM | IC50 (KARPAS-422 [14]): 52 nM

Cc1cc(Cl)c(CNC(=O)c2cc(Cl)c3c(c2C)OC(C)(C2CCC(N4CC(OC5CC5)C4)CC2)O3)c(=O)[nH]1 (stereo not drawn)
GI50 (KARPAS-422 [7]): 5 nM | EC50 (HeLa): 0.52 nM

COC1CN([C@H]2CC[C@H]([C@@H](C)c3sc4c(c3C)C(=O)N(Cc3c(C)cc(C)[nH]c3=O)CCC4)CC2)C1
IC50 [1]: 0.92 nM | IC50 [15]: 2.65 nM | IC50 [4]: 0.0097 nM

O=C1CCSC(c2ccccc2Cl)N1Nc1nc2ccccc2[nH]1 (stereo not drawn)
IC50 (HepG2): 13600 nM | IC50 (MCF7 [13]): 20300 nM | IC50 (PC-3): 9410 nM

CCN(c1cc(-c2ccc(CN3CCOCC3)cc2)cc(C(=O)NCC2C(=O)NC(C)c3cccc(F)c32)c1C)C1CCOCC1 (stereo not drawn)
IC50 [15]: 500 nM

COc1cc2nc(N3CCCN(C)CC3)nc(NC3CCN(Cc4ccccc4)CC3)c2cc1OC
IC50 (MDA-MB-231): 9600 nM

O=C(c1cc(Cc2n[nH]c(=O)c3ccccc23)ccc1F)N1CCN(C(=O)C2CC2)CC1 [OLAPARIB]
IC50 (cells): 36900 nM | IC50 (MDA-MB-468): 35600 nM | IC50 (MCF7 [16]): > 50000 nM

Cc1cc(C)c(CNC(=O)c2cc(Cl)c3c(c2C)O[C@@](C)([C@H]2CC[C@H](N(C)C)CC2)O3)c(=O)[nH]1 [VALEMETOSTAT]
GI50 (KARPAS-422 [7]): 4.8 nM
